Measured values reported in patent US20220193068A1, “A GRK2 PROTEIN INHIBITOR COMPOUND AND A PHARMACEUTICAL COMPOSITION COMPRISING THE SAME” (CONSEJO NACIONAL DE INVESTIGACIONES CIENTÍFICAS Y TÉCNICAS …, priority 2019, published 2022).

Assays:
[1] = biological target: T1, RGS domain of GRK2 (GRK2-K220R variant) (Bos taurus, UniProt P21146, K220R); assay: cAMP response of rH2 to amthamine in HEK293 clones overexpressing rH2 and GRK2-K220R; format: cell-based; conditions: 40 min pretreatment, C2-C5 at 10 μM or 100 μM, L96B at 100 nM or 1 μM, 10 μM amthamine, *p<0.05
T1 construct: expressed in transfected cells
T1 sequence (P21146 1-689 K220R): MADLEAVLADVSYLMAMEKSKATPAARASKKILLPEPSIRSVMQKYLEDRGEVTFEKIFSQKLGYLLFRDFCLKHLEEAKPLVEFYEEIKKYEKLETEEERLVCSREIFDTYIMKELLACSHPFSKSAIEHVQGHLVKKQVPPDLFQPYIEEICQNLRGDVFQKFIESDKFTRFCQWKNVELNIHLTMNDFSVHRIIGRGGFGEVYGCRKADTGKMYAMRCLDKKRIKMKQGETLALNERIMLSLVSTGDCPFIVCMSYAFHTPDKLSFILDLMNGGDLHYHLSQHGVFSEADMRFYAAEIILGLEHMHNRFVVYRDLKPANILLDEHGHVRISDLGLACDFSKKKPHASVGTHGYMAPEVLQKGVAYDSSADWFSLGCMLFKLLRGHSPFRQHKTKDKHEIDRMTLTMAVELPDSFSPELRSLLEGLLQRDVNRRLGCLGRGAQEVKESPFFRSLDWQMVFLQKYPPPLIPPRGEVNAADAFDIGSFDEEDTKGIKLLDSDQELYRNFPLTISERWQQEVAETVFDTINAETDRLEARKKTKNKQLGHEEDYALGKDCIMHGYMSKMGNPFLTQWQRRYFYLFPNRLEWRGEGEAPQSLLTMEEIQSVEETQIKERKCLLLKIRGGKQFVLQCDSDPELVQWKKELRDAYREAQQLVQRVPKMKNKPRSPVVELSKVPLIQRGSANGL
Excerpt: In order to assess the effect of inhibitors of the RGS domain of GRK2, a cell model derived from HEK293 transfected cells was obtained. Such cells overexpress the histamine H2 receptor (rH2), a G-protein coupled receptor (GPCR) of the Gs type that, when activated, promotes cAMP synthesis and which is inactivated by regulatory domain-mediated desensitization of G-protein stimulation (RGS) of GRK2. The clone obtained not only overexpresses rH2 but also overexpresses a negative dominant mutant of GRK2, the GRK2-K220R variant, which cannot phosphorylate GPCRs but can inactivate them through its RGS domain. In this system, the desensitizing effect of the RGS domain of GRK2 on the cAMP response of rH2 is evident.
Clones derived from HEK293 cells were obtained by stable and sequential transfection with pcDNA3.1Zeo(+)-HARH2 and pcDNA3-GRK2K22OR plasmids using K2 Transfection System (BIONTEX) reactive, following manufacturer's instructions and using, for a 35 mm diameter plate, a mixture A of 2.7 μg of total DNA and 150 μl of DMEM base and a mixture B of 6 μl of K2 transfection reactive and 150 μl of base DMEM. The following day, cells were plated in 96-well plates with 0.3 ml of complete DMEM per well. For clone selection, cells were incubated in selection agent-supplemented medium (50 μg/ml Zeocine or 1.2 mg/ml geneticin), following a limit dilution protocol. According to this protocol, cells were counted and plated performing serial dilutions, so as to obtain wells with con 1000, 100, 10 and 1 cell. The medium was renewed every other day by replacing 100 μl in each well with 100 μl of fresh medium of the same composition. After three weeks, several antibiotic-resistant clones were selected and afterwards plasmid expression was analyzed by Western blot.
Adhered clones were maintained in a humidified-atmosphere oven, with 5% CO2 at 37° C., in 10% FBS-supplemented DMEM medium, 50 μg/ml gentamicin, 0.8 mg/ml geneticin and 50 μg/ml zeocin. Cells were passed by adding 0.05% trypsin solution and 0.3 mM EDTA.
In order to assess the effect of GRK2 inhibitor compounds, clones were plated in 48-well plates at 50% confluence. […]
Next, cells were incubated for 3 min with 1 mM IBMX, a phosphodiesterase inhibitor that prevents degradation of the cAMP produced and afterwards the rH2-Gαs-adenylate-cyclase-cAMP signaling route was stimulated for 9 minutes with the rH2-specific agonist, amthamine, at a 10 μM concentration. […] This was evaporated and cAMP levels were determined.
cAMP in samples was quantified by adapting the linking protein-binding technique according to Davio et al, 1995.

[2] = test system: GRK2K220R/R106A (mutated RGS domain); assay: Selectivity control: cAMP response of rH2 in HEK293 clones overexpressing rH2 and GRK2K220R/R106A; format: cell-based; conditions: 10 μM amthamine, no significant differences
Method: In order to assess specificity of the effect of compounds over RGS domain of GRK2, assays were carried out in a second system that overexpresses rH2 and GRK2K220R/R106A, a GRK2 double mutant negative dominant construct that lacks both kinase activity and desensitization action through RGS domain. […] The R106A mutation that inactivates the RGS domain is redundant to the effect of an inhibitory potential, thus constituting the selectivity control of the model and allowing to determine if the enhancement in the receiver response occurred as a result of an inhibition of the RGS domain, or if it was the result of a non-specific action of the compound on an unwanted target. Those compounds that also raise cAMP levels in this control system are considered to be of non-specific action.
Since the latter mutation is redundant to the effect of a potential inhibitor of RGS domain of GRK2, this system allows us to discern whether the enhancement in the rH2 response occurred as a result of an RGS domain inhibition, or whether it resulted from a non-specific action of the compound on an unwanted target.

HEPG2 cell line [3] = test system: HEPG2 cell line
Method: (§1) Since hepatotoxicity is one of the main forms of toxicity in which drugs affect the body, the cytotoxicity of inhibitors was assessed using the human hepatocyte HEPG2 cell line.
(§2) Cells were plated in a 96-well plate at a 22,000 cell/well density and incubated for 48 hours with the compounds in a concentration range of between 0.33 μM and 200 μM. Afterwards, their viability was analyzed through trypan blue exclusion method and counted in Neubauer camera.

HEPG2 cell line [4] = assay: Viability of human hepatocyte HEPG2 cells, trypan blue exclusion; conditions: 48 hours, 0.33 μM to 200 μM, versus DMSO control, C2 effect as from 10 μM
Method: as §1, §2

| effect on H2 receptor capacity of response (cAMP) [1] | EC50 (HEPG2 cell line [3]) [µM] | melting point [°C] | Compound | effect over rH2 capacity of response (cAMP) with GRK2 mutated in the RGS domain [2] | cytotoxicity / cell viability (HEPG2 cell line [4]) |
| --- | --- | --- | --- | --- | --- |
| enhancing effect | 10.3 | – | CC(=O)N1CCc2cc(NC(=O)Nc3cccc4cccnc34)ccc21 [C2, 3-(1-acetyl-2,3-dihydro-H-indol-5-yl)-1-(quinoline-8-yl)urea] | lack of effect | – |
| enhancing effect | – | – | Cc1ccc2cc(C(=O)Nc3cccc(-c4nnco4)c3)c(C)nc2c1 [C3, 2,7-dimethyl-N-[3-(1,3,4-oxadiazol-2-yl)phenyl] quinoline-3-carboxamide] | lack of effect | – |
| enhancing effect | – | – | O=C(CCc1ccc2ccccc2c1)N1CCCC(n2cccn2)C1 (centres unmarked) [C4, 3-(naphtalen-2-yl)-1-[3-(1H-pyrazol-1-yl)piperidin-1-yl]propan-1-one] | lack of effect | – |
| enhancing effect | – | – | O=C(Cc1n[nH]c(=O)c2ccccc12)Nc1cccc2ncccc12 [C5, 2-(4-oxo-3,4-dihydrophthalazin-1-yl)-N-(quinoline-5-yl)acetamide] | lack of effect | – |

Continued, compound first:

| Compound | effect on H2 receptor capacity of response (cAMP) [1] | EC50 (HEPG2 cell line [3]) [µM] | melting point [°C] | effect over rH2 capacity of response (cAMP) with GRK2 mutated in the RGS domain [2] | cytotoxicity / cell viability (HEPG2 cell line [4]) |
| --- | --- | --- | --- | --- | --- |
| O=C(Nc1ccc(-c2nnco2)cc1)c1cnc2ccccc2c1 [L94C, N-[4-(1,3,4-oxadiazol-2-yl)phenyl]quinoline-3-carboxamide] | – | – | 202 | – | – |
| COC(=O)c1ccc(NC(=O)c2ccc3ccccc3c2)cc1 [L96B, methyl 4-(naphthalene-2-amido)benzoate] | – | – | – | – | did not affect cell viability |
